Tests used:
Assay type in all cases: binding
L-SIGN ECD [1] = target: T1, L-SIGN ECD (Homo sapiens, UniProt Q9H2X3); experiment: SPR competition experiments on a sensorchip functionalized with SARS-CoV-2 Spike protein, L-SIGN ECD co-injected; conditions: for IC50: 20 μM L-SIGN ECD co-injected, Spike HexaPro surface, 25° C., read-out: IC50 (inhibition of L-SIGN); for selectivity for L-SIGN over DC-SIGN: SPR competition, L-SIGN vs DC-SIGN ECD; for inhibits the L-SIGN receptor better than D-mannose: relative to D-mannose IC50
T1 construct: towards the extra cellular domain (ECD) of the DC-SIGN and L-SIGN receptors
T1 sequence (Q9H2X3 71-399 limits assumed): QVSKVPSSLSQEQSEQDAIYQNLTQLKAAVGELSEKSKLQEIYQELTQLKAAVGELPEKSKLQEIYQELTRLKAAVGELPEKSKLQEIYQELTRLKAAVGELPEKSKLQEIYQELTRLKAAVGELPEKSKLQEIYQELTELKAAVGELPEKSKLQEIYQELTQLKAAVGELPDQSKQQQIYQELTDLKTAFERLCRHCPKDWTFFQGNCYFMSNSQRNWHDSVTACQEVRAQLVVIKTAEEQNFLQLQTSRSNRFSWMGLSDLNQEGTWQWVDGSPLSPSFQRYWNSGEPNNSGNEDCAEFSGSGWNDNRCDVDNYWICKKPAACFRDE

L-SIGN ECD [2] = target: T1, L-SIGN ECD; experiment: Isothermal Titration Calorimetry (ITC) with L-SIGN ECD
Description: The interaction of compound 106a with the L-SIGN receptor was also confirmed by Isothermal Titration Calorimetry (ITC) experiments (FIG. 2).
These experiments were carried out on a MicroCal PEAQ-ITC apparatus, at 25° C., in buffer A (25 mM Tris pH 8, 150 mM NaCl, 4 mM CaCl2). L-SIGN ECD (172 μM) was titrated with consecutive 2 μL injections of a 2 mM solution of compound 106a in Calcium buffer (30 μL of 20 mM compound 106a+270 μL of Calcium buffer).
The analysis was performed in triplicate and the graphs shown in FIG. 2 (which report, respectively, Differential Power (DP) vs. time, and ΔH vs. molar ratio) are representative of the average of the three experiments.

L-SIGN ECD [3] = target: T1, L-SIGN ECD; experiment: SPR direct interaction experiments on oriented immobilized biotinylated ECD; conditions: read-out: apparent Kd for L-SIGN; Steady State Affinity model, ligands 2 nM to 500 nM
Description: For this experiment the extracellular domain (ECD) of DC-SIGN and L-SIGN were immobilized onto the SPR surface in an oriented manner, by their N-terminus, taking advantage of biotine/streptavidin interaction. To generate DC/L SIGN specifically biotinylated at the N-terminus, 3 glycine residues at the N-terminus of the protein were added by site directed mutagenesis in order to allow a sortaging procedure. The biotinylated versions of DC/L-SIGN ECDs (Biot-ECDs) were prepared by sortaging as described in Achilli, S., Monteiro, J. T., Serna, S., Mayer-Lambertz, S., Thépaut, M., Le Roy, A., Ebel, C., Reichardt, N.-C., Lepenies, B., Fieschi, F., and Vives, C. (2020) […], Artificial Tetrameric Lectins: A Tool to Screen Ligand and Pathogen Interactions. IJMS 21, 1-19 using a commercial synthetic biotinylated peptide,
To generate the oriented SPR surfaces, the flow cells were functionalized with Streptavidin in 10 mM Acetate buffer pH 4 and the remaining activated groups were blocked with 1 M ethanolamine pH 8. After blocking, the flow cells were treated with 100 μL of 10 mM HCl to remove non-specifically bound proteins and 100 μL of 50 mM NaOH/1M NaCl to expose surface to regeneration protocol. Priming of the surface was done using the running buffer (25 mM Tris pH 8, 150 mM NaCl, 4 mM CaCl2), 0.05% Tween). […] Surfaces are ready for interaction. […]

Row | SMILES | IC50 (L-SIGN ECD [1]) [µM] | selectivity for L-SIGN over DC-SIGN (L-SIGN ECD [1]) | further results
1 | NCc1cn(C2C(OCCCl)OC(CO)C(O)C2O)nn1 (centres unmarked) [Compound 103, reference compound] | 278 | – | –
2 | N=C(N)NCc1cn([C@H]2C(OCCCl)OC(CO)[C@@H](O)[C@@H]2O)nn1 (some centres unmarked) [Compound 106a] | 24 | up to 58 fold | Kd (L-SIGN ECD [2]): 12.8 ± 1.5 µM; enthalpy contribution (ΔH) of the interaction (L-SIGN ECD [2]; ITC): very favorable; stoichiometry of interaction between ligand and L-SIGN receptor (L-SIGN ECD [2]; ITC): 1,13; inhibits the L-SIGN receptor better than D-mannose (L-SIGN ECD [1]): 80 times; inhibits the L-SIGN receptor better than compound 103 (L-SIGN ECD [1]; relative to compound 103 IC50): 11 times
3 | OCC1O[C@H](OCCCl)C(n2cc(CNc3nc4ccccc4[nH]3)nn2)C(O)[C@@H]1O (some centres unmarked) [Compound 113] | 48 | more selective against DC-SIGN | –
4 | OCC1O[C@H](OCCCl)C(n2cc(CNc3ncc[nH]3)nn2)C(O)[C@@H]1O (some centres unmarked) [Compound 115] | 15 | up to 75 fold | –
5 | OCC1O[C@H](OCCCl)C(n2cc(CNc3ncc[nH]3)nn2)C(O)[C@@H]1O (some centres unmarked) [Compound 119] | 18 | – | inhibits the L-SIGN receptor better than D-mannose (L-SIGN ECD [1]): over two orders of magnitude
6 | N=C(N)NCc1cn(C2C(OCCn3cc(-c4cc(OCCOCCO)c(C#Cc5cc(OCCOCCO)c(C#Cc6cc(OCCOCCO)c(-c7cn(CCOC8OC(CO)C(O)C(O)C8n8cc(CNC(=N)N)nn8)nn7)cc6OCCOCCO)cc5OCCOCCO)cc4OCCOCCO)nn3)OC(CO)C(O)C2O)nn1 (centres unmarked) [Compound 133] | – | – | Kd (L-SIGN ECD [3]): 0.052 µM
7 | N=C(N)NCc1cn(C2C(OCCn3cc(COCCOCCOCCn4cc(-c5cc(OCCOCCO)c(C#Cc6cc(OCCOCCO)c(C#Cc7cc(OCCOCCO)c(-c8cn(CCOCCOCCOCc9cn(CCOC%10OC(CO)C(O)C(O)C%10n%10cc(CNC(=N)N)nn%10)nn9)nn8)cc7OCCOCCO)cc6OCCOCCO)cc5OCCOCCO)nn4)nn3)OC(CO)C(O)C2O)nn1 (centres unmarked) [Compound 135] | – | – | Kd (L-SIGN ECD [3]): 0.025 µM
8 | OCC1O[C@H](OCCCl)C(n2cc(CNC3=NCCCN3)nn2)C(O)[C@@H]1O (some centres unmarked) [Compound 139] | 12 | up to 94 fold | –
9 | COc1ccc2[nH]c(NCc3cn(C4C(O)[C@H](O)C(CO)O[C@@H]4OCCCl)nn3)nc2c1 (some centres unmarked) [Compound 146] | 52 | – | –
10 | O=C[C@@H](O)[C@@H](O)[C@H](O)[C@H](O)CO [D-mannose, reference compound] | 1940 | – | –

Source: US20250066411A1, “GL[…] FOR L-SIGN” (priority 2022, published 2025)
